# Biological target: rhSYK (Homo sapiens, UniProt P43405)
# Details: read-out: rhSYK Activity; Table 119; two symbols in a cell = one per listed form
row,IC50 [nM],Compound
1,< 100,"Cc1cc(Nc2nccc(C(F)(F)F)n2)cc(-c2cnc(C3(O)CCC(C(N)=O)C3)s2)c1 (single isomer, unassigned) [Example 119-1]"
2,< 100,"Cc1cc(Nc2nccc(C(F)(F)F)n2)cc(-c2cnc(C3(O)CCC(C(N)=O)C3)s2)c1 (single isomer, unassigned) [Example 119-3]"
3,< 100,"Cc1cc(Nc2nccc(C(F)(F)F)n2)cc(-c2cnc(C3(O)CCC(C(N)=O)C3)s2)c1 (single isomer, unassigned) [Example 119-4]"
4,< 100,"Cc1cc(Nc2nccc(C)n2)cc(-c2cnc(C3(O)CCC(C(N)=O)C(C)C3)s2)c1 (single isomer, unassigned) [Example 119-6]"
5,< 100,"Cc1cc(Nc2nccc(C(F)(F)F)n2)cc(-c2cnc(C3(O)CCC(C(N)=O)C(C)C3)s2)c1 (single isomer, unassigned) [Example 119-112]"

# Same assay, conditions: read-out: rhSYK Activity; class symbol; where two forms are listed, one symbol per form
row,IC50 [nM],Compound
1,< 100,O=C(c1ccccc1)N1CCC(O)(c2ncc(-c3cccc(Nc4nccc(C(F)(F)F)n4)c3)s2)CC1 [4D-6]
2,< 100,Cc1cc(Nc2nccc(C(F)(F)F)n2)cc(-c2cnc(C(C)(O)CO)s2)c1 (stereo not shown) [Ex 5-5]
3,< 100,Cc1cc(Nc2nccc(C(F)(F)F)n2)cc(-c2cnc(C(C)(O)CO)s2)c1 (stereo not shown) [Ex 5-6]
4,< 100,Cc1cc(Nc2nccc(C(F)(F)F)n2)cc(-c2cnc(C(C)(O)CO)s2)c1 (stereo not shown) [Ex 5-7]
5,< 100,Cc1cc(Nc2ncc(F)c(C)n2)cc(-c2cnc(C(C)(O)CO)s2)c1 (stereo not shown) [Ex 5-8]
6,< 100,Cc1cc(Nc2ncc(F)c(C)n2)cc(-c2cnc(C(C)(O)CO)s2)c1 (stereo not shown) [Ex 5-9]
7,< 100,Cc1cc(Nc2ncc(F)c(C)n2)cc(-c2cnc(C(C)(O)CO)s2)c1 (stereo not shown) [Ex 5-10]
8,100 to 1000,Cc1cc(Nc2ncc(Cl)cn2)cc(-c2cnc(C(C)(O)CO)s2)c1 (stereo not shown) [Ex 5-11]
9,< 100,Cc1cc(Nc2ncc(Cl)cn2)cc(-c2cnc(C(C)(O)CO)s2)c1 (stereo not shown) [Ex 5-12]
10,100 to 1000,Cc1cc(Nc2ncc(Cl)cn2)cc(-c2cnc(C(C)(O)CO)s2)c1 (stereo not shown) [Ex 5-13]
11,< 100,Cc1cc(Nc2ncc(F)c(C3CC3)n2)cc(-c2cnc(C(C)(O)CO)s2)c1 (stereo not shown) [Ex 5-16]
12,< 100,Cc1cc(Nc2ncc(F)c(C3CC3)n2)cc(-c2cnc(C(C)(O)CO)s2)c1 (stereo not shown) [Ex 5-17]
13,< 100,Cc1cc(Nc2ncc(F)c(C3CC3)n2)cc(-c2cnc(C(C)(O)CO)s2)c1 (stereo not shown) [Ex 5-18]
14,< 100,COc1ccc(Nc2nccc(C(F)(F)F)n2)cc1-c1cnc(C2(O)CCC2)s1 [Example 1-1]
15,100 to 1000,OC1(c2ncc(-c3cc(Nc4nccc(C(F)(F)F)n4)ccc3Cl)s2)CCC1 [Example 1-2]
16,100 to 1000,OC1(c2ncc(-c3cc(Nc4nccc(C(F)(F)F)n4)ccc3OC(F)(F)F)s2)CCC1 [Example 1-3]
17,100 to 1000,OC1(c2ncc(-c3cc(Nc4nccc(C(F)(F)F)n4)ccc3OCc3ccccc3)s2)CCC1 [Example 1-4]
18,< 100,Oc1ccc(Nc2nccc(C(F)(F)F)n2)cc1-c1cnc(C2(O)CCC2)s1 [Example 1-5]
19,< 100,Cc1ccc(Nc2nccc(C(F)(F)F)n2)cc1-c1cnc(C2(O)CCC2)s1 [Example 1-6]
20,< 100,CC(C)(O)c1ncc(-c2cccc(Nc3nccc(C(F)(F)F)n3)c2)s1 [Example 4A-1]
21,< 100,CC(O)(c1ncc(-c2cccc(Nc3nccc(C(F)(F)F)n3)c2)s1)C(F)(F)F (stereo not shown) [Example 4A-2]
22,100 to 1000,CC(C)(C)C(C)(O)c1ncc(-c2cccc(Nc3nccc(C(F)(F)F)n3)c2)s1 (stereo not shown) [Example 4A-6]
23,100 to 1000,OC(c1ccccc1)(c1ncc(-c2cccc(Nc3nccc(C(F)(F)F)n3)c2)s1)C(F)F (stereo not shown) [Example 4A-7]
24,100 to 1000,CN(C)CC(C)(C)C(O)c1ncc(-c2cccc(Nc3nccc(C(F)(F)F)n3)c2)s1 (stereo not shown) [Example 4A-8]
25,< 100,CCC(O)(c1ncc(-c2cccc(Nc3nccc(C(F)(F)F)n3)c2)s1)C(F)(F)F (stereo not shown) [Example 4A-9]

row,IC50 [nM],Compound
1,< 100,CC(O)(c1ncc(-c2cccc(Nc3nccc(C(F)(F)F)n3)c2)s1)C(F)F (stereo not shown) [Example 4A-10]
2,1000 to 10000,OC(c1ncc(-c2cccc(Nc3nccc(C(F)(F)F)n3)c2)s1)(C1CCCCC1)C(F)(F)F (stereo not shown) [Example 4A-11]
3,100 to 1000,CC(O)(c1ccn(S(=O)(=O)c2ccccc2)c1)c1ncc(-c2cccc(Nc3nccc(C(F)(F)F)n3)c2)s1 (stereo not shown) [Example 4A-12]
4,100 to 1000,OC(c1ccc(Br)cn1)(c1ncc(-c2cccc(Nc3nccc(C(F)(F)F)n3)c2)s1)C(F)F (stereo not shown) [Example 4A-13]
5,100 to 1000,CN(C)CC(C)(O)c1ncc(-c2cccc(Nc3nccc(C(F)(F)F)n3)c2)s1 (stereo not shown) [Example 4A-14]
6,100 to 1000,OC(c1ncc(-c2cccc(Nc3nccc(C(F)(F)F)n3)c2)s1)C1CCCC1 (stereo not shown) [Example 4A-15]
7,< 100,OC(c1ccoc1)c1ncc(-c2cccc(Nc3nccc(C(F)(F)F)n3)c2)s1 (stereo not shown) [Example 4A-17]
8,100 to 1000,OC(c1cccnc1)c1ncc(-c2cccc(Nc3nccc(C(F)(F)F)n3)c2)s1 (stereo not shown) [Example 4A-18]
9,100 to 1000,CC(C)n1cc(C(O)c2ncc(-c3cccc(Nc4nccc(C(F)(F)F)n4)c3)s2)cn1 (stereo not shown) [Example 4A-20]
10,< 100,CC(O)(c1cccnc1)c1ncc(-c2cccc(Nc3nccc(C(F)(F)F)n3)c2)s1 (stereo not shown) [Example 4A-21]
11,< 100,CC(O)(c1cnccn1)c1ncc(-c2cccc(Nc3nccc(C(F)(F)F)n3)c2)s1 (stereo not shown) [Example 4A-22]
12,< 100,CC(O)(c1ncc(-c2cccc(Nc3nccc(C(F)(F)F)n3)c2)s1)C1CCC1 (stereo not shown) [Example 4A-23]
13,100 to 1000,CC(C)C(O)(c1ncc(-c2cccc(Nc3nccc(C(F)(F)F)n3)c2)s1)C(C)C [Example 4A-24]
14,100 to 1000,CC(=O)OCCC(C)(O)c1ncc(-c2cccc(Nc3nccc(C(F)(F)F)n3)c2)s1 (stereo not shown) [Example 4A-25]
15,100 to 1000,CCOC(=O)C1(C(C)(O)c2ncc(-c3cccc(Nc4nccc(C(F)(F)F)n4)c3)s2)CC1 (stereo not shown) [Example 4A-26]
16,100 to 1000,OC(c1cccnc1)(c1nnco1)c1ncc(-c2cccc(Nc3nccc(C(F)(F)F)n3)c2)s1 (stereo not shown) [Example 4A-27]
17,100 to 1000,CCC(=O)C(O)(CC)c1ncc(-c2cccc(Nc3nccc(C(F)(F)F)n3)c2)s1 (stereo not shown) [Example 4A-28]
18,100 to 1000,CC(O)(c1ccc(S(C)(=O)=O)s1)c1ncc(-c2cccc(Nc3nccc(C(F)(F)F)n3)c2)s1 (stereo not shown) [Example 4A-29]
19,100 to 1000,OC(c1ccccn1)(c1nccs1)c1ncc(-c2cccc(Nc3nccc(C(F)(F)F)n3)c2)s1 (stereo not shown) [Example 4A-30]
20,< 100,COCC(C)(O)c1ncc(-c2cc(C)cc(Nc3nccc(C(F)(F)F)n3)c2)s1 (stereo not shown) [Example 4A-32]
21,< 100,Cc1cc(Nc2nccc(C(F)(F)F)n2)cc(-c2cnc(C(C)(O)CF)s2)c1 (stereo not shown) [Example 4A-33]
22,< 100,Cc1cc(Nc2nccc(C(F)(F)F)n2)cc(-c2cnc(C(O)(CF)CF)s2)c1 [Example 4A-34]
23,< 100,Cc1cc(Nc2nccc(C(F)(F)F)n2)cc(-c2cnc(C(C)(O)c3ncnn3C)s2)c1 (stereo not shown) [Example 4A-35]
24,< 100,Cc1cc(Nc2nccc(C(F)(F)F)n2)cc(-c2cnc(C(C)(O)c3noc(C)n3)s2)c1 (stereo not shown) [Example 4A-36]

row,Compound,IC50 [nM]
1,CC(O)(c1ncc(-c2cccc(Nc3nccc(C(F)(F)F)n3)c2)s1)C(F)(F)C(F)(F)C(F)(F)F (stereo not shown) [Example 4A-31],1000 to 10000

# Same assay, conditions: read-out: rhSYK activity; class symbol given
row,IC50 [nM],Compound
1,< 100,"Cc1cc(Nc2nccc(C(F)(F)F)n2)cc(-c2cnc(C3(O)CCC(O)CC3)s2)c1 (stereo not drawn) [8(2), trans-1-[5-(3-methyl-5-{[4-(trifluoromethyl)pyrimidin-2-yl]amino}phenyl)-1,3-thiazol-2-yl]-cyclohexane-1,4-diol]"
2,< 100,"Cc1cc(Nc2nccc(C(F)(F)F)n2)cc(-c2cnc([C@]3(O)CC[C@@](C)(O)CC3)s2)c1 [9(2), cis-1-methyl-4-[5-(3-methyl-5-{[4-(trifluoromethyl)pyrimidin-2-yl]amino}phenyl)-1,3-thiazol-2-yl]cyclohexane-1,4-diol]"
3,< 100,"Cc1cc(Nc2nccc(C(F)(F)F)n2)cc(-c2cnc([C@]3(O)CC[C@@H](C(=O)O)CC3)s2)c1 [33(1)-K, Potassium cis-4-hydroxy-4-[5-(3-methyl-5-{[4-(trifluoromethyl)pyrimidin-2-yl]amino}phenyl)-1,3-thiazol-2-yl]cyclohexanecarboxylate]"
4,< 100,"Cc1cc(Nc2nccc(C(F)(F)F)n2)cc(-c2cnc(C3(O)CCC(C(=O)O)CC3)s2)c1 (stereo not drawn) [33(1)-NA, Sodium cis-4-hydroxy-4-[5-(3-methyl-5-{[4-(trifluoromethyl)pyrimidin-2-yl]amino}phenyl)-1,3-thiazol-2-yl]cyclohexanecarboxylate]"
5,< 100,"Cc1cc(Nc2nccc(C(F)(F)F)n2)cc(-c2cnc([C@]3(O)CC[C@H](C(=O)O)CC3)s2)c1 [33(2)-K, Potassium trans-4-hydroxy-4-[5-(3-methyl-5-{[4-(trifluoromethyl)pyrimidin-2-yl]amino}phenyl)-1,3-thiazol-2-yl]cyclohexanecarboxylate]"
6,< 100,"Cc1cc(Nc2nccc(C(F)(F)F)n2)cc(-c2cnc(C3(O)CCC(C#N)CC3)s2)c1 (stereo not drawn) [37(1), cis-4-hydroxy-4-[5-(3-methyl-5-{[4-(trifluoromethyl)pyrimidin-2-yl]amino}phenyl)-1,3-thiazol-2-yl]cyclohexanecarbonitrile]"
7,< 100,"Cc1cc(Nc2nccc(C(F)(F)F)n2)cc(-c2cnc(C3(O)CCC(C#N)CC3)s2)c1 (stereo not drawn) [37(2), trans-4-hydroxy-4-[5-(3-methyl-5-{[4-(trifluoromethyl)pyrimidin-2-yl]amino}phenyl)-1,3-thiazol-2-yl]cyclohexanecarbonitrile]"
8,< 100,"Cc1cc(Nc2nccc(C(F)(F)F)n2)cc(-c2cnc([C@]3(O)CC[C@H](C(N)=O)CC3)s2)c1 [38(1), trans-4-hydroxy-4-[5-(3-methyl-5-{[4-(trifluoromethyl)pyrimidin-2-yl]amino}phenyl)-1,3-thiazol-2-yl]cyclohexanecarboxamide]"
9,< 100,"Cc1cc(Nc2nccc(C(F)(F)F)n2)cc(-c2cnc(C3(O)CCC(C(N)=O)CC3)s2)c1 (stereo not drawn) [38(2), cis-4-hydroxy-4-[5-(3-methyl-5-{[4-(trifluoromethyl)pyrimidin-2-yl]amino}phenyl)-1,3-thiazol-2-yl]cyclohexanecarboxamide]"
